Test results published in paper PMC12297698 (Scientific Reports, 2025).

Target: T1, Caspase-3 (Recombinant human Caspase-3 protein (Active)) (Homo sapiens, UniProt P42574)
T1 sequence (P42574 29-175): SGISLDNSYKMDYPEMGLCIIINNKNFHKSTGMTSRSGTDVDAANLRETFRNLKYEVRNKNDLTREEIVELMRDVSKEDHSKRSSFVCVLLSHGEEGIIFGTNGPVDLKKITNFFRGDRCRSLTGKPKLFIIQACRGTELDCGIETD
T1 sequence (P42574 176-277): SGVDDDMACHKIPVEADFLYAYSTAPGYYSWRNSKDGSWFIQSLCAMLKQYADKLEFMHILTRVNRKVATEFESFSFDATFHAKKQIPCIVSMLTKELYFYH
Assay: SPR, Biacore T200, CM5 chip, immobilised caspase-3
Format: binding

OC[C@H]1O[C@@H](OCCc2ccc(O)cc2)[C@H](O)[C@@H](O)[C@@H]1O [Salidroside]
Kd: 76.7 µM
